# Measurements taken from publication PMC11623267, “Inhibitors of malaria parasite cyclic nucleotide phosphodiesterases block asexual blood-stage development and mosquito transmission” (Science Advances, 2024).
# Columns and labels:
# human PDE5A1 = molecular target: T1, human PDE5A1 (Homo sapiens, UniProt O76074); assay: Human PDE5 selectivity SPA; assay type: biochemical; conditions: IC50 PDE5A1 / IC50 PDEβ schizont lysates
# T1 construct: GST (glutathione S-transferase); purchased BPS Bioscience BPS-60050
# Protocol: (§1) The selectivity of the compounds on the parasite PDEs over the two human isoforms PDE5A1 and PDE6C was measured through a dose-response assay of their hydrolytic activity in presence of the compounds. Similarly to the parasite lysates, an SPA was carried out with the recombinant purified human glutathione S-transferase–tagged PDE5A1 or PDE6C (BPS Bioscience, BPS-60050 and BPS-60062) prepared in PDE assay buffer [10 mM tris-HCl (pH 7.4), 10 mM MgCl2, bovine serum albumin (0.1 mg/ml), and 0.05% Tween 20] at a concentration of 648 pg of enzyme per 50 μl of total volume per well. To determine the IC50 of the compounds, threefold serial dilutions in duplicate were performed. Briefly, the assays were carried out in flexible 96-well plates (PerkinElmer, 1450-401) by incubating the enzyme with the compounds and 5 μl of 200 nM cGMP dilution [[^3H]-cNMP tracer (PerkinElmer, cGMP-NET337250UC) in PDE assay buffer] to a total volume of 50 μl for 45 min at 37°C. The reactions were terminated by addition of 25 μl of PDE SPA beads (PerkinElmer, RPNQ0150), and after 20 min of incubation at room temperature, scintillation was measured using a Wallac 1450 Microbeta Counter (PerkinElmer) for 30 s. […] The selectivity of the compounds was expressed as the fold change in the IC50 obtained for PDE5A1 or PDE6C and the IC50 for the P. falciparum PDEβ schizont lysates.
# [1] = tested on: P. falciparum stage V gametocytes (female gamete formation); assay: Female gamete formation inhibition assay; assay type: cell-based, Plasmodium falciparum; conditions: 2 μM, 48 hours
# Protocol: Mature gametocytes (>95% stage V) were treated with compounds (2 μM) for 48 hours before stimulating female gamete formation. To evaluate compound dose response, gametocytes were treated similarly at set concentrations representing a fourfold serial dilution. Female gamete activation was induced by both a temperature drop and the addition of 100 μM XA. Monoclonal anti-Pfs25 antibody (BEI Resources, catalog number MRA-28; 1:1000 dilution) conjugated to fluorescein isothiocyanate was used to detect female gametes. Image acquisition was performed using a Zeiss Axio Lab.A1 epifluorescence microscope with a 100/1.4 numerical aperture oil immersion objective and a Zeiss Axiocam 202 mono digital camera. Using a 100× objective, 30 images were taken per sample and analyzed manually. The number, size, roundness, and intensity of fluorescence of activated female gametocytes were evaluated. Compound IC50 values were determined with nonlinear curve fitting (GraphPad Prism 6), normalized to maximum and minimum inhibition.
# [2] = tested on: P. falciparum stage V gametocytes (male gamete formation); assay: Exflagellation (male gamete formation) inhibition assay; assay type: cell-based, Plasmodium falciparum; conditions: 2 μM, 48 hours
# Protocol: The exflagellation inhibition assay was performed by capturing movement of exflagellation centers over time by video microscopy [adapted from a reported protocol ([52])]. For this carry-over format, mature stage V gametocytes were treated with 2 μM of each compound for 48 hours before induction of exflagellation in the presence of compound. To evaluate compound dose response, gametocytes were treated similarly at a set of concentrations representing a fourfold serial dilution. Mature gametocyte cultures (>95% stage V; 500 μl) were centrifuged at 3500 rpm for 30 s, and the pellet was resuspended in 30 μl of ookinete medium [RPMI 1640 medium containing L-glutamine (Sigma-Aldrich, R6504), gentamycin (0.024 mg/ml; HyClone, SV30080.01), 202 μM hypoxanthine (Sigma-Aldrich, H9636), 25 mM Hepes (Sigma-Aldrich, H4034), 0.2% glucose (Sigma-Aldrich, G6152), and 0.5% (w/v) AlbuMAX II (Invitrogen, Paisley, UK), supplemented with 100 μM XA and 20% human serum]. The activated culture (10 μl) was introduced into a Neubauer chamber and placed on the microscope platform to settle homogenously. Time was noted as time zero (T0), and the chamber was incubated at room temperature. Movement was recorded by video microscopy using a Carl Zeiss NT 6V/10W Stab microscope, fitted with a MicroCapture camera at 10× magnification, and then quantified by a semiautomated method, a modification of the method described previously ([53]). A series of 15 videos of 8 to 10 s each were captured at random locations between 15 and 22.5 min after incubation. Each video was analyzed using Icy bioimage analysis software to quantify the number of exflagellating centers. Compound IC50 values were determined with nonlinear curve fitting (GraphPad Prism 6), normalized to maximum and minimum inhibition.
# [3] = tested on: P. falciparum stage IV/V gametocytes; assay: LDH-based gametocyte viability assay; assay type: cell-based, Plasmodium falciparum; conditions: stage IV to V gametocytes
# Protocol: The pLDH assay was performed on late (>95% stage IV/V) gametocytes. Compound dilutions were placed in triplicate in 96-well plates in a final volume of 100 μl per well. DHA and MMV048 were used as positive drug controls. The gametocyte cultures (100 μl per well) were added to the 96-well plates to achieve a final gametocytemia and hematocrit of 2 and 1%, respectively, in a total incubation volume of 200 μl. Plates were incubated at 37°C for 72 hours, followed by the replacement of spent medium with drug-free culture medium (75% medium change) ([54], [55]). Plates were then incubated for a further 72 hours before assessing viability by measuring pLDH activity. Gametocyte viability was determined spectrophotometrically by measuring the activity of pLDH, according to a modified version of a published protocol ([56]). Briefly, 100 μl of Malstat reagent [0.21% (v/v) Triton X-100, 222 mM L-(+)-lactic acid, 54.5 mM tris, 0.166 mM APAD (Sigma-Aldrich, A5251), adjusted to pH 9 with 1 M NaOH] was transferred into a clean 96-well plate. A fixed volume of 20 μl of parasite suspension per well was added to the Malstat plate, followed by the addition of 25 μl of PES/NBT (0.239 mM phenazine ethosulfate and 1.96 mM nitro blue tetrazolium chloride). Absorbance was measured with a Multiskan Ascent 354 multiplate scanner (Thermo LabSystems, Finland) at 620 nm.
# human PDE6C = molecular target: T2, human PDE6C (Homo sapiens, UniProt P51160); assay: Human PDE6 selectivity SPA; assay type: biochemical; conditions: IC50 PDE6C / IC50 PDEβ schizont lysates
# T2 construct: GST (glutathione S-transferase); purchased BPS Bioscience BPS-60062
# T2 sequence (P51160 whole entry): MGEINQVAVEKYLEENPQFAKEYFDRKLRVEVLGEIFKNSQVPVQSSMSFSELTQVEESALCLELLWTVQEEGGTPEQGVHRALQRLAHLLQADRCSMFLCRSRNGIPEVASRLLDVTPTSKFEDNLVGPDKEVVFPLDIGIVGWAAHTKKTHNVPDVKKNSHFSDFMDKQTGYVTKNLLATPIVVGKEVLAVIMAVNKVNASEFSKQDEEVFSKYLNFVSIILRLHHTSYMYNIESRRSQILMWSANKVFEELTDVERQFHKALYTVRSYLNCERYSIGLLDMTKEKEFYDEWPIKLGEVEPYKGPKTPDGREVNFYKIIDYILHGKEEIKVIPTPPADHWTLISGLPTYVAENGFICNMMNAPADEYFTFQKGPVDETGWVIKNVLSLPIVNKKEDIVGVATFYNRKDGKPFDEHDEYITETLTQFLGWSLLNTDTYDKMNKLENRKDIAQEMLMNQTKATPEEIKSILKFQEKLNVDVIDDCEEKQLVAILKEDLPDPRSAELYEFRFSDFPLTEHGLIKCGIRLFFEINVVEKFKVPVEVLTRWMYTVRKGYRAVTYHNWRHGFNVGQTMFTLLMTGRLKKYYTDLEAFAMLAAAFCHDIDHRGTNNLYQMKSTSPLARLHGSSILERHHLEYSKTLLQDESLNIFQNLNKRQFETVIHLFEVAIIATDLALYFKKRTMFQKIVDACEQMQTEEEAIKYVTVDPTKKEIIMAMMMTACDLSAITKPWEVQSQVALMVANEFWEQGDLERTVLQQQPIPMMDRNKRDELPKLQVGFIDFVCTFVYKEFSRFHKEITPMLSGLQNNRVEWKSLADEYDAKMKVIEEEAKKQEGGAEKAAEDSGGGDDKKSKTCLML
# Protocol: as §1
# PDEβ = molecular target: T3, PDEβ (Plasmodium falciparum, UniProt Q8I6Z7); assay: cAMP hydrolysis SPA in schizont membrane lysates; assay type: biochemical; conditions: read-out: IC50 against PDEβ
# T3 construct: endogenous in cells; host or cells: P. falciparum 3D7 schizonts, NP-40 membrane lysate
# T3 sequence (Q8I6Z7 whole entry): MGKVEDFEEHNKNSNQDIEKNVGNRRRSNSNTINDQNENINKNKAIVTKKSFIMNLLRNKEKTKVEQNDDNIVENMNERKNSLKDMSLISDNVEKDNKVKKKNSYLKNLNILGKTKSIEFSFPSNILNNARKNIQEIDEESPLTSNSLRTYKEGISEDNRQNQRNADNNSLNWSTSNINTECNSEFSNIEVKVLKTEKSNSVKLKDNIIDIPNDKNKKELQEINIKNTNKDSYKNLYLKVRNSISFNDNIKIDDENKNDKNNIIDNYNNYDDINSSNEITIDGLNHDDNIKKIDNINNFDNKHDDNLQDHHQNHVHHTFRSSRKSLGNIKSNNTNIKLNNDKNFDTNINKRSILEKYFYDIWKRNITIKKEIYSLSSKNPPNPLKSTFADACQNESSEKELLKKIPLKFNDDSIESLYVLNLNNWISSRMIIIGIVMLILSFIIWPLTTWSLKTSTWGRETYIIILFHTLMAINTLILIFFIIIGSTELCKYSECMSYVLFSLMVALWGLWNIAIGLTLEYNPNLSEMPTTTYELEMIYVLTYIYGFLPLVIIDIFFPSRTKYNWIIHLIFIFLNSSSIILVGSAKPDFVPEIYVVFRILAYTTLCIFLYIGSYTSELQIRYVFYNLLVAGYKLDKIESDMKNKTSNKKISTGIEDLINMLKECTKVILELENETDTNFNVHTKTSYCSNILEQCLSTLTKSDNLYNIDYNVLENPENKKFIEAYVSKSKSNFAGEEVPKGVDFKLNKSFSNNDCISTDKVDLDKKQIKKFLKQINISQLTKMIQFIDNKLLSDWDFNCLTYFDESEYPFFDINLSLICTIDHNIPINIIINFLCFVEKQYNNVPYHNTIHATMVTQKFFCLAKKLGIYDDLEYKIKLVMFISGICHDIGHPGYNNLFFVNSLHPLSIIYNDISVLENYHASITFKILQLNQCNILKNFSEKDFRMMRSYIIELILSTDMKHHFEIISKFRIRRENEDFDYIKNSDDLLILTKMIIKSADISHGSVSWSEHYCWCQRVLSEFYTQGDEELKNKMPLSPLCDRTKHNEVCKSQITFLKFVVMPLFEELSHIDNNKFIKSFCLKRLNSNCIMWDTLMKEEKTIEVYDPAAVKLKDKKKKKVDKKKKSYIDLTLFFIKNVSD
# From the text: We identified three PDE inhibitor chemical series generated by Pfizer, with structures in the public domain, which have activity against malaria parasites (see the “Chemistry strategy summary” section). These series were originally designed to inhibit human PDEs and were chosen as chemistry start points to optimize activity against malaria parasites. More than 400 new analogs were generated (full details of their properties will be reported in a separate paper, in preparation) through iterative rounds of synthesis and testing. The chemistry start points for each of the series were SAL-0010042 (5-benzyl), SAL-0010043 (5-aryl), and SAL-0010034 (2-alkyl) (see Materials and Methods and fig. S1A). S2. Analytical data for these compounds are provided in data S1. All newly synthesized compounds were tested for inhibition of native cAMP-PDE activity in mature schizont crude membrane preparations and inhibition of P. falciparum ABS growth. S3A. […] The unbound EC50 values for the compounds in the parasite growth inhibition assay were consistently calculated to be sevenfold higher than the IC50 values in the biochemical assay. Given that PDEβ is dual specific (i.e., can hydrolyze both cAMP and cGMP), we also determined IC50 values for cGMP hydrolysis. […] The IC50 values measured for cGMP hydrolysis in blood-stage schizonts were generally similar to those for cAMP hydrolysis (Table 1). […]
# The cyclic nucleotide hydrolytic activity of membrane-associated parasite PDE enzymes was measured by a scintillation proximity assay (SPA) ([18]) using lysates of mature P. falciparum schizonts or stage IV/V gametocytes. […] The IC50 values for the compounds were determined using threefold serial dilutions in duplicate. […] The reactions were terminated by addition of 25 μl of PDE SPA beads (PerkinElmer, RPNQ0150), and after 20 min of incubation at room temperature, scintillation was measured using a Wallac 1450 Microbeta Counter (PerkinElmer) for 30 s. […]
# P. falciparum ABS = conditions: read-out: EC50 P. falciparum ABS growth inhibition; cited from earlier work
# recombinant human PDE9 = tested on: recombinant human PDE9; parameters: method as in PMID 25555060, PMID 21766240; conditions: cited from earlier work
# malaria parasites = tested on: malaria parasites; parameters: method as in PMID 25951195, PMID 33262483; conditions: cited from earlier work
# PDE6 = tested on: PDE6; parameters: method as in PMID 29743944; conditions: cited from earlier work
# P. falciparum 3D7 = P. falciparum 3D7 LDH growth inhibition assay (asexual blood stage); assay type: cell-based, Plasmodium falciparum; conditions: Plasmodium falciparum, 3D7, read-out: EC50 against ABS parasites
# Protocol: P. falciparum isolates (3D7/Dd2) were obtained from BEI Resources and were cultured using standard procedures as described elsewhere ([47]). Briefly, P. falciparum was grown in RPMI 1640 medium (10.3 g/liter) supplemented with L-glutamine (2 mM), hypoxanthine (150 μM), Hepes (25 mM), D-glucose (12 mM), sodium bicarbonate (25.7 mM), AlbuMAX II (0.5% or 5 g/liter) (pH 7.4), and 2% RBC (type O+, freshly prepared). Cultures were replenished with fresh medium and RBCs every other day. For RBC preparation, whole blood was centrifuged at 415g at room temperature for 12 min. After that, the plasma and buffy coat were removed, and packed RBCs were washed three times with 3 vol of RPMI 1640. Last, RBCs were resuspended in 1:1 vol of complete RPMI 1640 medium (containing 0.5% AlbuMAX II).
# The P. falciparum 3D7 and Dd2 LDH growth inhibition assay was carried out as described elsewhere ([48]) with minor modification of the parasitological conditions (10 to 15% parasitemia with ≥80% rings). Data were normalized to percent growth inhibition with respect to […] (for 3D7, a mixture of 100 nM chloroquine and 100 nM atovaquone as 100% inhibition; for Dd2, a mixture of 200 nM DHA and 200 nM atovaquone as 100% inhibition) controls.
SMILES,% inhibition of female gamete formation at 2 μM [1] [%],% inhibition of exflagellation at 2 μM [2] [%],% inhibition gametocyte viability at 15 μM [3] [%],IC50 (PDEβ) [µM],further results
CCc1c2nc(-c3cc(-c4ccccc4)cnc3OCC(C)C)[nH]c(=O)c2nn1CCOC [SAL-0010028],6.9 ± 2.6,18.6 ± 15.8,57.1 ± 27.0,,Selectivity against human PDE5 (human PDE5A1): 773 fold
CCCCOc1ncc(Br)cc1-c1nc2c(CC)n(CCOC)nc2c(=O)[nH]1 [SAL-0010039],20.7 ± 2.3,0,0,,Selectivity against human PDE6 (human PDE6C): 338 fold
"CC(C)c1n[nH]c2c(=O)[nH]c(Cc3ccccc3)nc12 [BIPPO, 5-benzyl-3-isopropyl-1H-pyrazolo[4,3-d]pyrimidin-7(6H)-one]",,,,0.009,EC50 (P. falciparum ABS): 0.4 µM; Potency against recombinant human PDE9 (recombinant human PDE9): 0.03 µM
CCCc1nn(C)c2c(=O)[nH]c(-c3cc(S(=O)(=O)N4CCN(C)CC4)ccc3OCC)nc12 [sildenafil],,,,> 10,IC50 against malaria parasites (malaria parasites): mid-to-high micromolar range; Selectivity (PDE5 over PDE6) (PDE6): < 10 fold; EC50 (P. falciparum 3D7): > 25 µM
